Test results as given in ChEMBL document CHEMBL1201862, “PubChem BioAssay data set” (2004).
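In this assay, cells in 96-well plates receive the compound at five concentrations for 48 hours. Endpoints are linearly interpolated between the surrounding concentrations. Here, GI50 denotes the concentration required for 50% inhibition of growth.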 Calls of active or inactive are those of the source. No stated cut-off is given here; in the data, active = GI50 up to about 1.1 µM and inactive = higher.

Legend:
Test in all cases: growth of human tumour cells (NCI), 48 h
M14 = test system: M14
HCC 2998 = test system: HCC 2998
OVCAR-4 = test system: OVCAR-4
UO-31 = test system: UO-31
SF-268 = test system: SF-268
SNB-19 = test system: SNB-19
A498 = test system: A498
SK-OV-3 = test system: SK-OV-3
HOP-62 = test system: HOP-62
SW-620 = test system: SW-620
NCI-H460 = test system: NCI-H460
786-0 = test system: 786-0
UACC-257 = test system: UACC-257
LXFL 529 = test system: LXFL 529
TK-10 = test system: TK-10
A549 = test system: A549
EKVX = test system: EKVX
NCI-H23 = test system: NCI-H23
OVCAR-5 = test system: OVCAR-5
SN12C = test system: SN12C
OVCAR-3 = test system: OVCAR-3
NCI-H226 = test system: NCI-H226
ACHN = test system: ACHN
HOP-92 = test system: HOP-92
SR = test system: SR
M19-MEL = test system: M19-MEL
SK-MEL-5 = test system: SK-MEL-5
SK-MEL-28 = test system: SK-MEL-28
CAKI-1 = test system: CAKI-1
U-251 = test system: U-251
SNB-78 = test system: SNB-78
SNB-75 = test system: SNB-75
NCI-H522 = test system: NCI-H522
SF-295 = test system: SF-295
DMS-273 = test system: DMS-273
KM12 = test system: KM12
HOP-18 = test system: HOP-18
HCT-116 = test system: HCT-116
HCT-15 = test system: HCT-15
SF-539 = test system: SF-539
HT-29 = test system: HT-29
KM-20L2 = test system: KM-20L2
LOX IMVI = test system: LOX IMVI
CCRF-CEM = test system: CCRF-CEM
DLD-1 = test system: DLD-1
IGROV-1 = test system: IGROV-1
RXF 393 = test system: RXF 393
SK-MEL-2 = test system: SK-MEL-2
UACC-62 = test system: UACC-62
COLO 205 = test system: COLO 205
MOLT-4 = test system: MOLT-4
K562 = test system: K562
Malme-3M = test system: Malme-3M
RPMI-8226 = test system: RPMI-8226
DMS-114 = test system: DMS-114
HL-60 = test system: HL-60
OVCAR-8 = test system: OVCAR-8
XF498 = test system: XF498

## Cc1ccc(C)c(NC(=O)CC/C(=N\NC(=O)C(=O)NN)C(C)C(=O)c2ccc(O)cc2)c1 (stereo not drawn)
M14
  GI50: > 100 µM (inactive)
HCC 2998
  GI50: > 100 µM (inactive)
OVCAR-4
  GI50: > 100 µM (inactive)
UO-31
  GI50: > 100 µM (inactive)
SF-268
  GI50: > 100 µM (inactive)
SNB-19
  GI50: > 100 µM (inactive)
A498
  GI50: > 100 µM (inactive)
SK-OV-3
  GI50: > 100 µM (inactive)
HOP-62
  GI50: > 100 µM (inactive)
SW-620
  GI50: > 100 µM (inactive)
NCI-H460
  GI50: > 100 µM (inactive)
786-0
  GI50: > 100 µM (inactive)
UACC-257
  GI50: > 100 µM (inactive)
LXFL 529
  GI50: > 100 µM (inactive)
TK-10
  GI50: > 100 µM (inactive)
A549
  GI50: > 100 µM (inactive)
EKVX
  GI50: > 100 µM (inactive)
NCI-H23
  GI50: > 100 µM (inactive)
OVCAR-5
  GI50: > 100 µM (inactive)
SN12C
  GI50: > 100 µM (inactive)
OVCAR-3
  GI50: > 100 µM (inactive)
NCI-H226
  GI50: > 100 µM (inactive)
ACHN
  GI50: > 100 µM (inactive)
HOP-92
  GI50: > 100 µM (inactive)
SR
  GI50: > 100 µM (inactive)
M19-MEL
  GI50: > 100 µM (inactive)
SK-MEL-5
  GI50: > 100 µM (inactive)
SK-MEL-28
  GI50: > 100 µM (inactive)
CAKI-1
  GI50: > 100 µM (inactive)
U-251
  GI50: > 100 µM (inactive)
SNB-78
  GI50: > 100 µM (inactive)
SNB-75
  GI50: > 100 µM (inactive)
NCI-H522
  GI50: > 100 µM (inactive)
SF-295
  GI50: > 100 µM (inactive)
DMS-273
  GI50: > 100 µM (inactive)
KM12
  GI50: > 100 µM (inactive)
HOP-18
  GI50: > 100 µM (inactive)
HCT-116
  GI50: > 100 µM (inactive)
HCT-15
  GI50: > 100 µM
SF-539
  GI50: > 100 µM (inactive)
HT-29
  GI50: > 100 µM (inactive)
KM-20L2
  GI50: > 100 µM (inactive)
LOX IMVI
  GI50: > 100 µM (inactive)
CCRF-CEM
  GI50: > 100 µM (inactive)
DLD-1
  GI50: > 100 µM (inactive)
IGROV-1
  GI50: > 100 µM (inactive)
RXF 393
  GI50: > 100 µM (inactive)
SK-MEL-2
  GI50: > 100 µM (inactive)
UACC-62
  GI50: > 100 µM (inactive)
COLO 205
  GI50: > 100 µM (inactive)
MOLT-4
  GI50: > 100 µM (inactive)
K562
  GI50: > 100 µM (inactive)
Malme-3M
  GI50: > 100 µM (inactive)
RPMI-8226
  GI50: > 100 µM (inactive)

## Cc1ccc(F)c2c(=O)cc(-c3ccccc3)[nH]c12
M14
  GI50: > 100 µM (inactive)
DMS-114
  GI50: > 100 µM (inactive)
OVCAR-4
  GI50: > 100 µM (inactive)
UO-31
  GI50: 60.3 µM (inactive)
SF-268
  GI50: > 100 µM (inactive)
SK-OV-3
  GI50: > 100 µM (inactive)
HOP-62
  GI50: > 100 µM (inactive)
SW-620
  GI50: > 100 µM (inactive)
NCI-H460
  GI50: > 100 µM (inactive)
786-0
  GI50: > 100 µM (inactive)
UACC-257
  GI50: > 100 µM (inactive)
LXFL 529
  GI50: > 100 µM (inactive)
TK-10
  GI50: > 100 µM (inactive)
A549
  GI50: > 100 µM (inactive)
NCI-H23
  GI50: > 100 µM (inactive)
OVCAR-5
  GI50: > 100 µM (inactive)
SN12C
  GI50: > 100 µM (inactive)
NCI-H226
  GI50: 63 µM (inactive)
ACHN
  GI50: > 100 µM (inactive)
HOP-92
  GI50: > 100 µM (inactive)
SR
  GI50: 50.5 µM (inactive)
M19-MEL
  GI50: > 100 µM (inactive)
SK-MEL-5
  GI50: 87.5 µM (inactive)
SK-MEL-28
  GI50: > 100 µM (inactive)
CAKI-1
  GI50: > 100 µM (inactive)
U-251
  GI50: > 100 µM (inactive)
HL-60
  GI50: > 100 µM (inactive)
SNB-75
  GI50: 26 µM (inactive)
NCI-H522
  GI50: > 100 µM (inactive)
SF-295
  GI50: > 100 µM (inactive)
DMS-273
  GI50: 94.6 µM (inactive)
KM12
  GI50: 98.2 µM (inactive)
HOP-18
  GI50: > 100 µM (inactive)
HCT-116
  GI50: > 100 µM (inactive)
HCT-15
  GI50: > 100 µM
SF-539
  GI50: > 100 µM (inactive)
OVCAR-8
  GI50: > 100 µM (inactive)
HT-29
  GI50: > 100 µM (inactive)
LOX IMVI
  GI50: > 100 µM (inactive)
CCRF-CEM
  GI50: > 100 µM (inactive)
DLD-1
  GI50: > 100 µM (inactive)
IGROV-1
  GI50: > 100 µM (inactive)
RXF 393
  GI50: > 100 µM (inactive)
SK-MEL-2
  GI50: > 100 µM (inactive)
UACC-62
  GI50: > 100 µM (inactive)
COLO 205
  GI50: > 100 µM (inactive)
MOLT-4
  GI50: > 100 µM (inactive)
K562
  GI50: > 100 µM (inactive)
Malme-3M
  GI50: > 100 µM (inactive)
RPMI-8226
  GI50: > 100 µM (inactive)

## COc1cc(C2c3cc4c(cc3[C@H](NS(C)(=O)=O)C3COC(=O)[C@H]23)OCO4)cc(OC)c1OC (stereo partly drawn)
M14
  GI50: 0.426 µM (active)
HCC 2998
  GI50: 0.435 µM (active)
DMS-114
  GI50: 0.226 µM (active)
UO-31
  GI50: 9.35 µM (inactive)
SF-268
  GI50: 0.778 µM (active)
HOP-62
  GI50: 0.177 µM (active)
NCI-H460
  GI50: 0.615 µM (active)
786-0
  GI50: 0.471 µM (active)
UACC-257
  GI50: 0.612 µM (active)
LXFL 529
  GI50: 0.731 µM (active)
TK-10
  GI50: > 100 µM (inactive)
NCI-H23
  GI50: 0.223 µM (active)
OVCAR-5
  GI50: > 100 µM (inactive)
SN12C
  GI50: 0.482 µM (active)
NCI-H226
  GI50: 0.177 µM (active)
ACHN
  GI50: 0.51 µM (active)
SR
  GI50: 0.251 µM (active)
U-251
  GI50: 0.327 µM (active)
HL-60
  GI50: 0.253 µM (active)
NCI-H522
  GI50: 0.0671 µM (active)
DMS-273
  GI50: 0.297 µM (active)
KM12
  GI50: 0.108 µM (active)
HOP-18
  GI50: > 100 µM (inactive)
HCT-15
  GI50: 0.448 µM
SF-539
  GI50: 0.165 µM (active)
OVCAR-8
  GI50: 0.439 µM (active)
HT-29
  GI50: 0.34 µM (active)
KM-20L2
  GI50: 0.162 µM (active)
LOX IMVI
  GI50: 0.419 µM (active)
CCRF-CEM
  GI50: 0.444 µM (active)
DLD-1
  GI50: 0.592 µM (active)
SK-MEL-2
  GI50: > 100 µM (inactive)
UACC-62
  GI50: 0.162 µM (active)
COLO 205
  GI50: 0.186 µM (active)
MOLT-4
  GI50: 0.418 µM (active)
K562
  GI50: 0.415 µM (active)
Malme-3M
  GI50: > 100 µM (inactive)
RPMI-8226
  GI50: 0.394 µM (active)
XF498
  GI50: 0.56 µM (active)
